The values below come from patent US9714469B2, “Composition for increasing the lipophobicity of a watch-making component” (Rolex SA, priority 2010, dated 2017).

Data set [1] can be described thus: Contact angle of test oil on coated watch-making surfaces (epilame effect). The class given is physicochemical. The settings on record: for contact angle test oil: molecule alone 10^−3 M in IPA, soaking 5 min; for contact angle of the gold-plated brass part with the test oil: molecule alone at 10^−3 M, soaking 30 min. The method, then:
(§1) The epilame effect is conventionally evaluated by measuring the contact angle of the lubricants or of a test fluid (water, test liquids NSSC test) on the surface of the component.
The increased epilame effect permitted by the composition of the invention must be such that this contact angle with a watch oil is greater than 30°, preferably 35°, even more preferably 40°, as such an angle corresponds to very high epilame efficacy (see Renaud 1956, Osowiecki 1962 and Massin 1971).
(§2) Deposit • Place the watch part or parts in a container with an adapted shape, • Cover the part or parts with coating solution (thiol, BP or BP/thiol-PFPE mixture), • Incubate between 5 minutes and 360 minutes, • Eliminate the supernatant—remove the part, • The part is drip dried (centrifugation).
Dehydration—Rinsing • The part which received the deposit is placed in an oven at 120° C. for a period ranging from 6 to 15 h (only for rubies and silicon), • The part is brought back to room temperature then immersed in IPA under ultrasound for 2 minutes, • The part is dried under a stream of hot air. […]
The lipophobic effect was evaluated by measuring the contact angles of a test oil having surface tension of 33 mN/m on different surfaces. […]
In accordance with the reference articles in the watch-making literature (Renaud 1956, Osowiecki 1962 and Massin 1971), an angle of over 40° with a watch lubricant corresponds to very high epilame efficacy. […]
On the basis of the kinetics of molecule I.1, the following parameters were used to test the four other thiol-PF and thiol-PFPE molecules (I.2, I.3, I.4, I.5): • Concentration: 10^−3 M for each compound I.1 to I.5 • Solvent: Isopropyl alcohol (IPA) or Biosane T212 (MMCC) • Soaking Time: 30 minutes • Rinsing time: 2 minutes under ultrasound • Drying: hot air
Evaluation of functional properties was carried out by measuring the contact angles between the surface of the watch-making component and the drop of watch-making oil. It is noticeable that the concentration of 10^−3 M gives results that comply with the desired epilame effect (angle greater than 30°) for all molecules I.1 to I.5.
(§3) The properties of thiol and bisphosphonate molecules in isolation were measured on the surfaces of steel and gold-plated substrates using solutions at 10^−3 M and in isopropanol in accordance with the protocol described in example 3 above, with a soaking time of 5 minutes.

A short description of data set [2]: Contact angle of water drops on coated watch-making surfaces. The class given is physicochemical. The settings on record: molecule alone 10^−3 M in IPA, soaking 5 min. The method, then: as §1, §2
Dehydration—Rinsing • The part which received the deposit is placed in an oven at 120° C. for a period ranging from 6 to 15 h (only for rubies and silicon), • The part is brought back to room temperature then immersed in IPA under ultrasound for 2 minutes, • The part is dried under a stream of hot air.
Different surfaces were treated with solutions of thiol I.3 and BP II.1 molecules. […]
According to the epilame method described in paragraphs 3 and 5.1, the materials were treated by the mixture of the thiol molecule I.3. with the BP molecule II.1. dissolved in IPA. The contact angles were measured before and after treatment of the surface. […]
as §3

As for `O=C(NCCCCCCS)C(F)(OC(F)(F)C(F)(OC(F)(F)C(F)(OC(F)(F)C(F)(OC(F)(F)C(F)(OC(F)(F)C(F)(F)C(F)(F)F)C(F)(F)F)C(F)(F)F)C(F)(F)F)C(F)(F)F)C(F)(F)F` (stereo not drawn) [I.3], in data set [1], the “ranking of contact angles among the molecules” value is “highest”. Further, the figures for the “contact angle test oil” value in data set [1] (Au (gold-plated brass)) and in data set [1] (Steel) were 69.0 ° and 33.5 °, respectively. For the same compound, the results for the “contact angle of the gold-plated brass part with the test oil” value in data set [1] (solvent IPA) and in data set [1] (solvent MMCC (Biosane T212)) were 75.7 ± 6° and 63.8 ± 2.8°, respectively. For the same compound, the figures for the “contact angle H2O” value in data set [2] (Au (gold-plated brass)) and in data set [2] (Steel) were 96.4 ° and 70.2 °, respectively.
Take `O=C(NCCS)C(F)(F)C(F)(F)C(F)(F)C(F)(F)C(F)(F)C(F)(F)C(F)(F)F` [I.5]: the “contact angle of the gold-plated brass part with the test oil” value worked out at 67.6 ± 3.6° in data set [1] (solvent IPA) and 49.5 ± 2.5° in data set [1] (solvent MMCC (Biosane T212)).
